Reference: ChEMBL document CHEMBL1133955, “Design and synthesis of new inhibitors of HIV-1 protease dimerization with conformationally constrained templates” (Bioorg Med Chem Lett, 2001)

Legend:
[1] = molecular target: Human immunodeficiency virus type 1 protease (Human immunodeficiency virus 1, UniProt Q72874); assay: Inhibitory activity against HIV-1 protease
[2] = molecular target: Human immunodeficiency virus type 1 protease (Human immunodeficiency virus 1) (UniProt Q72874); assay: Compound was tested for inhibition of HIV-1 protease by a dissociative mechanism
[3] = molecular target: Human immunodeficiency virus type 1 protease (Human immunodeficiency virus 1) (UniProt Q72874); assay: Compound was tested for inhibition of HIV-1 protease (taken from ZhangPoorman plot)

Which results are given for `CC[C@@H](C)[C@H](NC(=O)[C@@H](NC(=O)[C@H](CC(C)C)NC(=O)[C@@H](N)Cc1c[nH]c2ccccc12)[C@H](C)O)C(=O)NCCc1cccc2c1oc1c(CCC(=O)N[C@H](C(=O)N[C@@H](Cc3ccc(O)cc3)C(=O)N[C@@H](CC(N)=O)C(=O)N[C@@H](Cc3ccccc3)C(=O)O)[C@H](C)O)cccc12`?
IC50 [1]: 12 µM; Kid [2]: 5.4 µM

For `COc1ccc(NC(=O)C(=O)O)cc1C(=O)NNC(=O)OCC1c2ccccc2-c2ccccc21`, which IC50 [1] is on record?
Its IC50 is 30 µM.

And the Kid [3]?
The Kid was 9.1 µM.
